Measurements from patent US20220089592A1, “IMIDAZO[1,2-A]PYRIDINYL DERIVATIVES AS IRAK4 INHIBITORS” (priority 2019, published 2022).
Where a name gives a salt, the structure may show the parent alone.

Biological target: T1, IRAK4 (Homo sapiens, UniProt Q9NWZ3)
T1 sequence (Q9NWZ3 1-460): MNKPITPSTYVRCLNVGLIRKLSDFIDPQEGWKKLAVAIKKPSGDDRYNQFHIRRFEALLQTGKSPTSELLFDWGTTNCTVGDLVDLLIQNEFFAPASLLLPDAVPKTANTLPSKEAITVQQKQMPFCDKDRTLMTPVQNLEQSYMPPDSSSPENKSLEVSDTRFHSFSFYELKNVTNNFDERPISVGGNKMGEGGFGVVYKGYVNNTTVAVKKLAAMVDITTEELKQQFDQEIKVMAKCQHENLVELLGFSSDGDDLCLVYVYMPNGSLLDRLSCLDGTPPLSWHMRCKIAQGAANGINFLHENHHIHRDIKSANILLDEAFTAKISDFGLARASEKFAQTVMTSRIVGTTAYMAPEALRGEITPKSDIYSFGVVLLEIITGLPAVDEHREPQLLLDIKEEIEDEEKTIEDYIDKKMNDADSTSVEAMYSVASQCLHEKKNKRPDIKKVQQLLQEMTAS
Experiment: 2-hour 1 mM ATP IRAK4 Biochemical assay (as above, but with 100 pM IRAK4 and 1 mM ATP)
Details: IRAK4 MSD BIOCHEMICAL (1 mM ATP) IC50 (μM), 100 pM IRAK4, 2 hours
Procedure, shortened: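 MSD electrochemiluminescence read-out: biotinylated peptide product bound to streptavidin plates, probed with anti-P-Thr rabbit antibody and Sulfo-Tag goat anti-rabbit. Kinase reaction used 1 mM ATP and 100 pM IRAK4 over 2 hours before EDTA quench.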

Row | Compound | IC50 [µM]
1 | COc1ncccc1C(=O)Nc1cn2cc(C34COC(C)(C3)C4)nc2nc1OC1CC1 [Example 505, N-(7-cyclopropoxy-2-(1-methyl-2-oxabicyclo[2.1.1]hexan-4-yl)imidazo[1,2-a]pyrimidin-6-yl)-2-methoxynicotinamide 2,2,2-trifluoroacetate] | 0.007
2 | CC(C)Oc1cc2nc(C3CCOC3)cn2cc1NC(=O)c1cccc(C(F)F)n1 (stereo not drawn) [Example 530, 6-(difluoromethyl)-N-(7-isopropoxy-2-(tetrahydrofuran-3-yl)imidazo[1,2-a]pyridin-6-yl)picolinamide 2,2,2-trifluoroacetate] | 0.045
3 | COc1cc(NC(=O)c2cccc(C(F)F)n2)cn2cc(C34CC(F)(C3)C4)nc12 [Example 535, 6-(difluoromethyl)-N-(2-(3-fluorobicyclo[1.1.1]pentan-1-yl)-8-methoxyimidazo[1,2-a]pyridin-6-yl)picolinamide] | 0.05
4 | COc1nc(NC(=O)c2cccc(C(F)F)n2)cn2cc(C34COCC3C4)nc12 (stereo not drawn) [Example 550, N-(2-(3-oxabicyclo[3.1.0]hexan-1-yl)-8-methoxyimidazo[1,2-a]pyrazin-6-yl)-6-(difluoromethyl)picolinamide 2,2,2-trifluoroacetate] | 0.055
5 | COc1nc(NC(=O)c2cccc(C(F)F)n2)cn2cc(C3C4COCC43)nc12 (stereo not drawn) [Example 551, N-(2-(3-oxabicyclo[3.1.0]hexan-6-yl)-8-methoxyimidazo[1,2-a]pyrazin-6-yl)-6-(difluoromethyl)picolinamide 2,2,2-trifluoroactetate] | 0.026
6 | COc1nc(NC(=O)c2cccc(C(F)F)n2)cn2cc(C34CC(C(F)F)(C3)C4)nc12 [Example 552, 6-(difluoromethyl)-N-(2-(3-(difluoromethyl)bicyclo[1.1.1]pentan-1-yl)-8-methoxyimidazo[1,2-a]pyrazin-6-yl)picolinamide 2,2,2-trifluoroacetate] | 0.017
7 | COc1nc(NC(=O)c2cccc(C(F)F)n2)cn2cc(C34CC(OC)(C3)C4)nc12 [Example 553, 6-(difluoromethyl)-N-(8-methoxy-2-(3-methoxybicyclo[1.1.1]pentan-1-yl)imidazo[1,2-a]pyrazin-6-yl)picolinamide 2,2,2-trifluoroacetate] | 0.011
8 | COc1nc(NC(=O)c2cccc(C(F)F)n2)cn2cc(C34COC(C)(C3)C4)nc12 [Example 554, 6-(difluoromethyl)-N-(8-methoxy-2-(1-methyl-2-oxabicyclo[2.1.1]hexan-4-yl)imidazo[1,2-a]pyrazin-6-yl)picolinamide 2,2,2-trifluoroacetate] | 0.011
9 | COc1nc(NC(=O)c2cccc(C(F)F)n2)cn2cc(C34CCOC(C)(C3)C4)nc12 [Example 555, 6-(difluoromethyl)-N-(8-methoxy-2-(1-methyl-2-oxabicyclo[3.1.1]heptan-5-yl)imidazo[1,2-a]pyrazin-6-yl)picolinamide] | 0.007
10 | COc1nc(NC(=O)c2cccc(C(F)F)n2)cn2cc(C3C4CCOCC43)nc12 (stereo not drawn) [Example 556, N-(2-(3-oxabicyclo[4.1.0]heptan-7-yl)-8-methoxyimidazo[1,2-a]pyrazin-6-yl)-6-(difluoromethyl)picolinamide 2,2,2-trifluoroacetate] | 0.005
11 | COc1nc(NC(=O)c2cccc(C(F)F)n2)cn2cc(C3CC4(CCOC4)C3)nc12 (stereo not drawn) [Example 557, 6-(difluoromethyl)-N-(8-methoxy-2-(6-oxaspiro[3.4]octan-2-yl)imidazo[1,2-a]pyrazin-6-yl)picolinamide 2,2,2-trifluoroacetate] | 0.006
12 | COc1nc(NC(=O)c2cccc(C(F)F)n2)cn2cc(C3CC34CCOCC4)nc12 (stereo not drawn) [Example 558, 6-(difluoromethyl)-N-(8-methoxy-2-(6-oxaspiro[2.5]octan-1-yl)imidazo[1,2-a]pyrazin-6-yl)picolinamide 2,2,2-trifluoroacetate] | 0.044
13 | COc1nc(NC(=O)c2cccc(C(F)F)n2)cn2cc(C34COC(CF)(C3)C4)nc12 [Example 559, 6-(difluoromethyl)-N-(2-(1-(fluoromethyl)-2-oxabicyclo[2.1.1]hexan-4-yl)-8-methoxyimidazo[1,2-a]pyrazin-6-yl)picolinamide] | 0.012

More lines, in order of falling IC50, values ahead:

Row | IC50 [µM] | Compound
14 | 0.005 | CC(C)Oc1nc2nc(C3C4COCC43)cn2cc1NC(=O)c1ccn(C)n1 (stereo not drawn) [Example 500, N-(2-(3-oxabicyclo[3.1.0]hexan-6-yl)-7-isopropoxyimidazo[1,2-a]pyrimidin-6-yl)-1-methyl-1H-pyrazole-3-carboxamide Hydrochloride]
15 | 0.005 | COc1nc(NC(=O)c2cccc(C(F)F)n2)cn2cc(C3CCCOC3)nc12 (stereo not drawn) [Example 549, 6-(difluoromethyl)-N-(8-methoxy-2-(tetrahydro-2H-pyran-3-yl)imidazo[1,2-a]pyrazin-6-yl)picolinamide]
16 | 0.004 | CC(C)Oc1cc2nc(C3CC3)cn2cc1NC(=O)c1ccn(C(F)F)n1 [Example 528, N-(2-cyclopropyl-7-isopropoxyimidazo[1,2-a]pyridin-6-yl)-1-(difluoromethyl)-1H-pyrazole-3-carboxamide]
17 | 0.003 | COCC(C)(C)c1cn2cc(NC(=O)c3cccc(C(F)F)n3)c(OC(C)C)cc2n1 [Example 527, 6-(difluoromethyl)-N-(7-isopropoxy-2-(1-methoxy-2-methylpropan-2-yl)imidazo[1,2-a]pyridin-6-yl)picolinamide]
18 | 0.003 | CC(C)Oc1cc2nc(-c3cccc(F)c3)cn2cc1NC(=O)c1cccc(C(F)F)n1 [Example 538, 6-(difluoromethyl)-N-(2-(3-fluorophenyl)-7-isopropoxyimidazo[1,2-a]pyridin-6-yl)picolinamide 2,2,2-trifluoroacetate]
19 | 0.002 | CC(C)Oc1nc2nc(C3C4COCC43)cn2cc1NC(=O)c1ccn(C(C)C)n1 (stereo not drawn) [Example 501, N-(2-(3-oxabicyclo[3.1.0]hexan-6-yl)-7-isopropoxyimidazo[1,2-a]pyrimidin-6-yl)-1-isopropyl-1H-pyrazole-3-carboxamide hydrochloride]
20 | 0.002 | CC(C)Oc1nc2nc(C3C4COCC43)cn2cc1NC(=O)c1ccn(CC(F)F)n1 (stereo not drawn) [Example 503, N-(2-(3-oxabicyclo[3.1.0]hexan-6-yl)-7-isopropoxyimidazo[1,2-a]pyrimidin-6-yl)-1-(2,2-difluoroethyl)-1H-pyrazole-3-carboxamide]
21 | 0.002 | CC(C)Oc1nc2nc(C3C4COCC43)cn2cc1NC(=O)c1coc(C(C)C)n1 (stereo not drawn) [Example 504, N-(2-(3-oxabicyclo[3.1.0]hexan-6-yl)-7-isopropoxyimidazo[1,2-a]pyrimidin-6-yl)-2-isopropyloxazole-4-carboxamide]
22 | 0.002 | CC(C)Oc1cc2nc(-c3ccnn3C)cn2cc1NC(=O)c1cccc(C(F)F)n1 [Example 525, 6-(difluoromethyl)-N-(7-isopropoxy-2-(1-methyl-1H-pyrazol-5-yl)imidazo[1,2-a]pyridin-6-yl)picolinamide]
23 | 0.002 | CC(C)Oc1cc2nc(C34CC(F)(C3)C4)cn2cc1NC(=O)c1cccc(C(F)(F)F)n1 [Example 539, N-(2-(3-fluorobicyclo[1.1.1]pentan-1-yl)-7-isopropoxyimidazo[1,2-a]pyridin-6-yl)-6-(trifluoromethyl)picolinamide 2,2,2-trifluoroacetate]
24 | 0.001 | COc1cc2nc(C34COC(C)(C3)C4)cn2cc1NC(=O)c1cccc(C(F)F)n1 [Example 515, 6-(difluoromethyl)-N-(7-methoxy-2-(1-methyl-2-oxabicyclo[2.1.1]hexan-4-yl)imidazo[1,2-a]pyridin-6-yl)picolinamide 2,2,2-trifluoroacetate]
25 | 0.001 | CCOc1cc2nc(C34COCC3C4)cn2cc1NC(=O)c1cccc(C(F)F)n1 (stereo not drawn) [Example 518, N-(2-(3-oxabicyclo[3.1.0]hexan-1-yl)-7-ethoxyimidazo[1,2-a]pyridin-6-yl)-6-(difluoromethyl)picolinamide]
26 | 0.001 | CC(C)Oc1cc2nc(C3CC3)cn2cc1NC(=O)c1cccc(C(F)F)n1 [Example 526, N-(2-cyclopropyl-7-isopropoxyimidazo[1,2-a]pyridin-6-yl)-6-(difluoromethyl)picolinamide]
27 | 0.001 | Cc1nc(C(=O)Nc2cn3cc(C45COC(C)(C4)C5)nc3cc2OC(C)C)co1 [Example 529, N-(7-isopropoxy-2-(1-methyl-2-oxabicyclo[2.1.1]hexan-4-yl)imidazo[1,2-a]pyridin-6-yl)-2-methyloxazole-4-carboxamide]
28 | 0.001 | CC(C)Oc1c(NC(=O)c2ccn(C(C)C)n2)cn2cc(C34COC(C)(C3)C4)nc2c1F [Example 546, N-(8-fluoro-7-isopropoxy-2-(1-methyl-2-oxabicyclo[2.1.1]hexan-4-yl)imidazo[1,2-a]pyridin-6-yl)-1-isopropyl-1H-pyrazole-3-carboxamide 2,2,2-trifluoroacetate]
29 | 0.001 | CC(C)Oc1c(NC(=O)c2ccn(C(F)F)n2)cn2cc(C34COC(C)(C3)C4)nc2c1F [Example 547, 1-(difluoromethyl)-N-(8-fluoro-7-isopropoxy-2-(1-methyl-2-oxabicyclo[2.1.1]hexan-4-yl)imidazo[1,2-a]pyridin-6-yl)-1H-pyrazole-3-carboxamide]
30 | 0.001 | CC(C)Oc1c(NC(=O)c2cccc3ccnn23)cn2cc(C34COC(C)(C3)C4)nc2c1F [Example 548, N-(8-fluoro-7-isopropoxy-2-(1-methyl-2-oxabicyclo[2.1.1]hexan-4-yl)imidazo[1,2-a]pyridin-6-yl)pyrazolo[1,5-a]pyridine-7-carboxamide 2,2,2-trifluoroacetate]
